Measured values published in patent US5837548A, “Treatment of inflammation by inhibition of lipid body formation” (Beth Israel Hospital, priority 1995, dated 1998).

Assays:
[1] = tested on: wild-type mouse neutrophils; assay: lipid body formation in wild-type mouse neutrophils; type: cell-based; settings: AA 3.7-15 μM or OA 2.5-10 μM
[2] = tested on: macrophages from cyclooxygenase-2 deficient mice; assay: lipid body formation in macrophages from cyclooxygenase-2 deficient mice; type: cell-based, mouse; settings: AA 3.7-15 μM or OA 2.5-10 μM
Protocol: (§1) Cyclooxygenase-1 and cyclooxygenase-2 knockout mice were generated as recently described (Morham et al., Cell 83:473-482 (1995); Langenbach et al., Cell 83:483-492 (1995)). All experiments were carried out with male 8-12 week old mice. Macrophages from cyclooxygenase genetically deficient mice and wild-type litter mates were obtained by lavaging the peritoneal cavity with 5 mL of cold RPMI containing heparin (20 IU/mL).

[3] = tested on: human eosinophils (LTC4 production); assay: LTC4 production by human eosinophils (priming, A23187 stimulation, ELISA); type: cell-based
Protocol: (§2) FIG. 2A is a graph illustrating the effect of arachidonic acid (AA) and oleic acid (OA) on induction of lipid body formation (black) and priming effects (white) for enhanced leukotriene C4 (LTC4) by human eosinophils. Eosinophils (10^6 /mL) were stimulated for one hour with arachidonic acid (3.7, 7.5, 15 μM) or oleic acid (2.5, 5, 10 μM). Lipid bodies were enumerated using light microscopy following osmium staining. The concentration of LTC4 in the supernatant was measured by ELISA after incubation with A23187 (0.5 μM) for 15 minutes at 37° C. Data are expressed as mean from 2 independent assays performed in duplicate.
FIG. 5B is a graph showing that aspirin inhibits cis-unsaturated fatty acid-induced priming for enhanced leukotriene C4 (LTC4) production in human eosinophils. Striped and open columns represent vehicle treated cells and aspirin treated cells, respectively. Cells (10^6 /mL) were pretreated with aspirin (10 μg/mL) or vehicle for one hour and then stimulated with OA (10 μM) or vehicle for one hour. The concentration of LTC4 in the supernatant was measured by ELISA after incubation with A23187 (0.5 μM) for 15 minutes at 37° C. Data are expressed as mean from 2-4 independent assays performed in duplicate. The statistically significant difference between the vehicle alone and the agonist is represented by a cross. Statistically significant differences due to pretreatment with aspirin are indicated by an asterisk.
(§3) After the incubation time, a sample was taken for lipid body enumeration and the cells were washed in Ca^++ /Mg^++ free HBSS. Leukocytes were resuspended in 1 mL of HBSS containing Ca^++ /Mg^++ and then stimulated with A23187 (0.5 μM) for 15 min. The reaction was stopped on ice, and the samples were centrifuged at 1500 rpm for 10 min at 4° C. The concentrations of PGE2, LTB4, and LTC4 in the supernatants were assayed by ELISA according to the manufacturer's instructions (Cayman, Ann Arbor, Mich.).

[4] = tested on: human neutrophils (PGE2 production); assay: PGE2 production by human neutrophils (priming, A23187 stimulation, ELISA); type: cell-based
Protocol: FIG. 1B is a graph showing the effect of arachidonic acid (AA) and oleic acid (OA) on lipid body induction (black) and priming for enhanced prostaglandin E2 (PGE2) production (white) by human neutrophils. Neutrophils (10^6 /mL) were stimulated for one hour with arachidonic acid (3.7, 7.5, 15 μM) or oleic acid (2.5, 5, 10 μM). Lipid bodies were enumerated using light microscopy following osmium staining. The concentration of PGE2 in the supernatant was measured by ELISA after incubation with A23187 (0.5 μM) for 15 minutes at 37° C. Data are expressed as mean from 2-3 independent assays performed in duplicate.
as §3

[5] = tested on: peritoneal macrophages from COX 1 knockout mice; assay: lipid body formation in peritoneal macrophages from cyclooxygenase-1 knockout mice; type: cell-based, mouse; settings: for induction of lipid body formation in macrophages: cyclooxygenase-1 deficient mice, AA 3.7-15 μM or OA 2.5-10 μM
Protocol: (§4) FIG. 4 is a graph illustrating the effects of arachidonic acid and oleic acid on lipid body formation in peritoneal macrophages from wild type (+/+) and cyclooxygenase-1 knockout (-/-) mice. The agonists AA and OA are represented by the square and circle symbols, respectively. The closed symbols represent the wild type mice; the open symbols represent the cyclooxygenase-1 knockout mice. Macrophages (10^6 /mL) were incubated with the agonists AA and OA at varying concentrations for an hour. Lipid bodies were enumerated using light microscopy following osmium staining. Each point represents the mean±SEM from fifty consecutively scanned macrophages.
as §1
(§5) ^1 Peritoneal macrophages from wild type and COX 1 knockout mice were
(§6) pretreated with the NSAID or vehicle for 1h and then stimulated with
(§7) arachidonic acid (AA, 15 μM) or vehicle for 1h. Results are mean ±
(§8) SEM from fifty consecutively counted macrophages. The statistically

[6] = tested on: peritoneal macrophages from wild type mice; assay: lipid body formation in peritoneal macrophages from wild type mice; type: cell-based, mouse; settings: for induction of lipid bodies in macrophages: wild-type mouse, AA 3.7-15 μM or OA 2.5-10 μM
Protocol: as §4, §1, §5, §6, §7, §8

[7] = tested on: neutrophils (arachidonic acid uptake); assay: 14C-arachidonic acid uptake in arachidonic acid-stimulated neutrophils; type: cell-based, human
Protocol: Neutrophils (10^6 /mL) were labeled with ^14 C-arachidonic acid (0.01 μCi/sample) together with either vehicle, aspirin (10 μg/mL), indomethacin (1 μg/mL) or sodium salicylate (10 μg/mL) for 1 hour. After the incubation period, lipid body formation was elicited by arachidonic acid (15 μM). The cells were washed 3 times in Ca^++ /Mg^++ free HBSS and analysis of incorporated ^14 C-arachidonic acid in the cell pellet was performed by liquid scintillation counting.
^1 The cells were pretreated with ^14 Carachidonic acid (0.01
μCi/sample) plus vehicle, aspirin (10 μg/ml) , sodium salicylate (1
μg/ml) or indomethacin (1 μg/ml) 1 h before the incubation with
arachidonic acid (15 μM). Cells were washed 3 times before the analysi
of incorporated ^14 Carachidonic acid. Results are representative of
independent experiments.

colorectal cancer = settings: humans taking drug regularly vs persons not taking; cited from earlier work
[8] = tested on: human eosinophils (PGE2 production); assay: PGE2 production by human eosinophils (priming, A23187 stimulation, ELISA); type: cell-based; settings: 10 μg/mL pretreatment
Protocol: as §2, with “2B” for “2A”, “prostaglandin E2 (PGE2)” for “leukotriene C4 (LTC4)”, “PGE2” for “LTC4”
as §3

[9] = Homo sapiens, Eosinophil, 1 h, read-out: fold increase in production of LTC4
[10] = Homo sapiens, Neutrophil, 1 h, read-out: fold increase in production of PGE2

CCCCC/C=C\C/C=C\C/C=C\C/C=C\CCCC(=O)O [arachidonic acid]
induction of lipid bodies in neutrophils [1]: can also be stimulated in vitro to produce lipid bodies
induction of lipid body formation in macrophages [2]: induced lipid body formation
fold induction at 15 µM [3, 9]: 1.4
increase in production of LTC4 ([3]; eosinophils): dose-dependent increase in production
fold induction at 15 µM [4, 10]: 3.5
increase in production of PGE2 ([4]; neutrophils): dose-dependent increase in production
lipid bodies (mean ± SEM)/macrophage ([5]; COX 1 knockout, AA 15 μM alone, 1 h, no NSAID): 7.0 ± 0.5 lipid bodies/macrophage
induction of lipid body formation in macrophages [5]: induced lipid body formation
lipid bodies (mean ± SEM)/macrophage ([6]; wild type, AA 15 μM alone, 1 h, no NSAID): 6.8 ± 0.3 lipid bodies/macrophage
induction of lipid bodies in macrophages [6]: can also be stimulated in vitro to produce lipid bodies

CC(=O)Oc1ccccc1C(=O)O [aspirin]
inhibition of 14C-arachidonic acid uptake ([7]; arachidonic acid-stimulated cells, aspirin 10 μg/mL, sodium salicylate 10 μg/mL, indomethacin 1 μg/mL): failed to inhibit
14C-AA uptake ([7]; stimulus arachidonate 15 μM, drug 10 μg/ml): 6974 cpm
inhibition of calcium ionophore-induced LTC4 production ([3]; cells not pre-stimulated with cis-unsaturated fatty acids): failed to inhibit
inhibition of oleic acid-induced priming for enhanced LTC4 production ([3]; eosinophils, 10 μg/mL, OA 10 μM): significantly inhibited
lower risk of developing colorectal cancer (colorectal cancer): 40-50%
inhibition of PGE2 production ([4]; neutrophils, 10 μg/mL pretreatment): inhibited PGE2 production
inhibition of PGE2 production [8]: inhibited PGE2 production

CCCCCCCC/C=C\CCCCCCCC(=O)O [oleic acid]
induction of lipid bodies in neutrophils [1]: can also be stimulated in vitro to produce lipid bodies
induction of lipid body formation in macrophages [2]: induced lipid body formation
fold induction at 10 µM [3, 9]: 1.7
increase in production of LTC4 ([3]; eosinophils): dose-dependent increase in production
correlation (r) between number of lipid bodies and priming for enhanced LTC4 release ([3]; oleic acid, leukocytes, p<0.05): 0.95
fold induction at 10 µM [4, 10]: 2
increase in production of PGE2 ([4]; neutrophils): dose-dependent increase in production
correlation (r) between number of lipid bodies and priming for enhanced PGE2 release ([4]; oleic acid, leukocytes, p<0.01): 0.99
induction of lipid body formation in macrophages [5]: induced lipid body formation
induction of lipid bodies in macrophages [6]: can also be stimulated in vitro to produce lipid bodies
